Drawing on patent US12194051B2, “5-azaindazole derivatives as adenosine receptor antagonists” (MERCK PATENT GMBH, priority 2018, dated 2025), this text covers IC50 for 26 compounds.

For one assay, the target named is T1, human A2B receptors (Homo sapiens, UniProt P29275).
T1 construct: expressed in transfected cells; host or cells: HEK293
T1 sequence (P29275 1-332): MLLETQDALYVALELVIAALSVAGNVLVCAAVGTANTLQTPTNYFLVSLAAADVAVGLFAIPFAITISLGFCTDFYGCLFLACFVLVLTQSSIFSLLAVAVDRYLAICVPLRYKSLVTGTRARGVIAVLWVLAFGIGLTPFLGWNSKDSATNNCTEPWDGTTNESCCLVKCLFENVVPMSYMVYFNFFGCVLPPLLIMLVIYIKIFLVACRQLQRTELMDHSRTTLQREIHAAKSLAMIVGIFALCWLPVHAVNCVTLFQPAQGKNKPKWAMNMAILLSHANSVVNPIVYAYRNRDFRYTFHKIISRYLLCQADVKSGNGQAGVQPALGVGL
The assay is described as follows: Inhibition of human A2B receptor in recombinant HEK293 cells, cAMP quantification (HTRF). Type of assay: cell-based. The note with it: read-out: A2B (Category). The method, then: (§1) The functional activities of human A2A and A2B receptors were determined by quantification of cAMP, being the second messenger for adenosine receptors.
(§2) After a 15 min incubation, HTRF reagents (cAMP dynamic 2, Cis Bio) were added and the cellular cAMP levels were determined using the ENVISION (Perkin Elmer) plate reader.

For the next assay, the target named is T2, human A2A receptors (Homo sapiens, UniProt P29274).
T2 construct: expressed in transfected cells; host or cells: HEK293
T2 sequence (P29274 whole entry): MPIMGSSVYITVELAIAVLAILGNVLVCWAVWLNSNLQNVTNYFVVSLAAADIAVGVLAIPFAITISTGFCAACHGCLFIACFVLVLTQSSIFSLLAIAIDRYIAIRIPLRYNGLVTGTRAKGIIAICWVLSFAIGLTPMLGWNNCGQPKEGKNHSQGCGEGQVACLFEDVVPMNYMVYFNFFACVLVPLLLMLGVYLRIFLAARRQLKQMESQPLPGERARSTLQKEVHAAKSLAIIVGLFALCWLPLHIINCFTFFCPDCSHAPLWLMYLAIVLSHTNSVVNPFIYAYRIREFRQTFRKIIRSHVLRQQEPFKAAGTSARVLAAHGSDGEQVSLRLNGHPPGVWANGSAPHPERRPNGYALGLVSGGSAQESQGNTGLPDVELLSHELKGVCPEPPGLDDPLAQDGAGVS
The assay is described as follows: Inhibition of human A2A receptor in recombinant HEK293 cells, cAMP quantification (HTRF). The assay is classed as cell-based. The note with it: read-out: A2A (Category). As to the method:
as §1, §2
On the technique in general: In TR-FRET formats the signal depends on donor and acceptor labels being close together.

With `O=C(c1cc2c(cn1)c(Nc1ccc(F)cn1)nn2CC(F)(F)F)N1CCCOCC1` [Compound 44, [3-[(5-fluoro-2-pyridyl)amino]-1-(2,2,2-trifluoroethyl)pyrazolo[4,3-c]pyridin-6-yl]-(1,4-oxazepan-4-yl)methanone], the IC50 on human A2B receptors and on human A2A receptors was less than 100 nM throughout.

As to `CS(=O)(=O)Cn1nc(Nc2cccc(F)c2)c2cnc(C(=O)N3CCCOCC3)cc21` [Compound 28, [3-(3-fluoroanilino)-1-(methylsulfonylmethyl)pyrazolo[4,3-c]pyridin-6-yl]-(1,4-oxazepan-4-yl)methanone], the IC50 on human A2B receptors and at human A2A receptors was less than 100 nM in each case.

With `N#Cc1cccc(Nc2nn(CC(F)(F)F)c3cc(C(=O)N4CCCOCC4)ncc23)c1` [Compound 8, 3-[[6-(1,4-oxazepane-4-carbonyl)-1-(2,2,2-trifluoroethyl)pyrazolo[4,3-c]pyridin-3-yl]amino]benzonitrile], the IC50 at human A2B receptors was less than 1000 nM; on human A2A receptors, less than 100 nM.

Turning to `O=C(c1cc2c(cn1)c(Nc1ccc(F)cn1)nn2CC(F)(F)F)N1CCC[C@H](CO)C1` [Compound 102, [3-[(5-fluoro-2-pyridyl)amino]-1-(2,2,2-trifluoroethyl)pyrazolo[4,3-c]pyridin-6-yl]-[(3S)-3-(hydroxymethyl)-1-piperidyl]methanone], the IC50 on human A2B receptors and on human A2A receptors was less than 100 nM each time.

As to `O=C(c1cc2c(cn1)c(Nc1cnccn1)nn2CC(F)(F)F)N1CCOC[C@@H](F)C1` [Compound 122, [(6S)-6-fluoro-1,4-oxazepan-4-yl]-[3-(pyrazin-2ylamino)-1-(2,2,2-trifluoro-ethyl)-1H-pyrazolo[4,3-c]pyridin-6-yl]-methanone], the IC50 on human A2B receptors and at human A2A receptors was less than 100 nM each time.

For the compound `O=C(c1cc2c(cn1)c(Nc1cc(F)ccn1)nn2CC(F)(F)F)N1[C@@H]2CC[C@H]1C[C@@H](O)C2` [Compound 120, [3-[(4-fluoro-2-pyridyl)amino]-1-(2,2,2-trifluoroethyl)pyrazolo[4,3-c]pyridin-6-yl]-(3-endo-hydroxy-8-azabicyclo[3.2.1]octan-8-yl)methanone], the IC50 on human A2B receptors and on human A2A receptors was less than 100 nM in each case.

As for `CS(=O)(=O)Cn1nc(Nc2ccc(Cl)cn2)c2cnc(C(=O)N3CCCOCC3)cc21` [Compound 78, [3-(5-Chloro-pyridin-2-ylamino)-1-methanesulfonylmethyl-1H-pyrazolo[4,3-c]pyridin-6-yl]-[1,4]oxazepan-4-yl-methanone], the IC50 at human A2B receptors and on human A2A receptors was less than 100 nM each time.

Take `O=C(c1cc2c(cn1)c(Nc1cc(Cl)ccn1)nn2CC(F)(F)F)N1CCCOCC1` [Compound 64, [3-[(4-chloro-2-pyridyl)amino]-1-(2,2,2-trifluoroethyl)pyrazolo[4,3-c]pyridin-6-yl]-(1,4-oxazepan-4-yl)methanone]: the IC50 at human A2B receptors and on human A2A receptors was less than 100 nM throughout.

For the compound `O=C(c1cc2c(cn1)c(Nc1cccc(Cl)n1)nn2CC(F)(F)F)N1CCCOCC1` [Compound 51, [3-[(6-chloro-2-pyridyl)amino]-1-(2,2,2-trifluoroethyl)pyrazolo[4,3-c]pyridin-6-yl]-(1,4-oxazepan-4-yl)methanone], the IC50 on human A2B receptors is less than 1000 nM; on human A2A receptors it was less than 100 nM.

`O=C(c1cc2c(cn1)c(Nc1cc(F)cc(F)c1)nn2CC(F)(F)F)N1CCCOCC1` [Compound 15, [3-(3,5-difluoroanilino)-1-(2,2,2-trifluoroethyl)pyrazolo[4,3-c]pyridin-6-yl]-(1,4-oxazepan-4-yl)methanone]: the results for the IC50 on human A2B receptors and at human A2A receptors were less than 1000 nM and less than 100 nM, respectively.

With `O=C(c1cc2c(cn1)c(Nc1cc(C(F)(F)F)ccn1)nn2CC(F)(F)F)N1CCCOCC1` [Compound 62, 1,4-oxazepan-4-yl-[1-(2,2,2-trifluoroethyl)-3-[[4-(trifluoromethyl)-2-pyridyl]amino]pyrazolo[4,3-c]pyridin-6-yl]methanone], the IC50 on human A2B receptors is less than 1000 nM; on human A2A receptors it was less than 100 nM.

Turning to `O=C(c1cc2c(cn1)c(Nc1cnccn1)nn2CC(F)(F)F)N1CCC(F)CC1` [Compound 124, [3-(pyrazin-2ylamino)-1-(2,2,2-trifluoro-ethyl)-1H-pyrazolo[4,3-c]pyridin-6-yl]-(4-fluoro-piperidin-1-yl)-methanone], the results for the IC50 on human A2B receptors and on human A2A receptors were less than 1000 nM and less than 100 nM, respectively.

`O=C(c1cc2c(cn1)c(Nc1ccc(F)c(F)c1)nn2CC(F)(F)F)N1CCCOCC1` [Compound 17, [3-(3,4-difluoroanilino)-1-(2,2,2-trifluoroethyl)pyrazolo[4,3-c]pyridin-6-yl]-(1,4-oxazepan-4-yl)methanone]: the results for the IC50 at human A2B receptors and at human A2A receptors were less than 1000 nM and less than 100 nM, respectively.

Take `O=C(c1cc2c(cn1)c(Nc1ccccn1)nn2CC(F)(F)F)N1CCCOCC1` [Compound 42, 1,4-oxazepan-4-yl-[3-(2-pyridylamino)-1-(2,2,2-trifluoroethyl)pyrazolo[4,3-c]pyridin-6-yl]methanone]: the IC50 on human A2B receptors and on human A2A receptors was less than 100 nM in each case.

As to `CS(=O)(=O)Cn1nc(Nc2ccc(F)cc2)c2cnc(C(=O)N3CCCOCC3)cc21` [Compound 27, [3-(4-fluoroanilino)-1-(methylsulfonylmethyl)pyrazolo[4,3-c]pyridin-6-yl]-(1,4-oxazepan-4-yl)methanone], the IC50 was less than 1000 nM on human A2B receptors and less than 100 nM on human A2A receptors.

Take `O=C(c1cc2c(cn1)c(Nc1ccc(F)cn1)nn2CC(F)(F)F)N1CCOC[C@@H](F)C1` [Compound 93, [(6S)-6-fluoro-1,4-oxazepan-4-yl]-[3-[(5-fluoro-2-pyridyl)amino]-1-(2,2,2-trifluoroethyl)pyrazolo[4,3-c]pyridin-6-yl]methanone]: the IC50 at human A2B receptors and on human A2A receptors was less than 100 nM in each case.

As to `O=C(c1cc2c(cn1)c(Nc1ccccc1)nn2CC(F)(F)F)N1CCCOCC1` [Compound 2, [3-anilino-1-(2,2,2-trifluoroethyl)pyrazolo[4,3-c]pyridin-6-yl]-(1,4-oxazepan-4-yl)methanone], the IC50 on human A2B receptors was less than 1000 nM; at human A2A receptors it was less than 100 nM.

Regarding `O=C(c1cc2c(cn1)c(Nc1ccc(Cl)cn1)nn2CC(F)(F)F)N1CCCOCC1` [Compound 48, [3-[(5-chloro-2-pyridyl)amino]-1-(2,2,2-trifluoroethyl)pyrazolo[4,3-c]pyridin-6-yl]-(1,4-oxazepan-4-yl)methanone], the IC50 at human A2B receptors and on human A2A receptors was less than 100 nM each time.

With `O=C(c1cc2c(cn1)c(Nc1ccc(Cl)c(F)c1)nn2CC(F)(F)F)N1CCCOCC1` [Compound 19, [3-(4-chloro-3-fluoroanilino)-1-(2,2,2-trifluoroethyl)pyrazolo[4,3-c]pyridin-6-yl]-(1,4-oxazepan-4-yl)methanone], the IC50 at human A2B receptors and on human A2A receptors was less than 100 nM each time.

In the case of `CS(=O)(=O)Cn1nc(Nc2ccccc2)c2cnc(C(=O)N3[C@@H]4CC[C@H]3C[C@@H](O)C4)cc21` [Compound 29, [3-anilino-1-(methylsulfonylmethyl)pyrazolo[4,3-c]pyridin-6-yl]-(3-endo-hydroxy-8-azabicyclo[3.2.1]octan-8-yl)methanone], the IC50 at human A2B receptors and on human A2A receptors was less than 100 nM in each case.

As to `CC1(O)CCN(C(=O)c2cc3c(cn2)c(Nc2cc(F)ccn2)nn3CC(F)(F)F)CC1` [Compound 112, [3-(4-Fluoro-pyridin-2-ylamino)-1-(2,2,2-trifluoro-ethyl)-1H-pyrazolo[4,3-c]pyridin-6-yl]-(4-hydroxy-4-methyl-piperidin-1-yl)-methanone], the IC50 on human A2B receptors and on human A2A receptors was less than 100 nM each time.

Take `O=C(c1cc2c(cn1)c(Nc1ccc(F)cn1)nn2CC(F)(F)F)N1CCC(F)CC1` [Compound 96, (4-Fluoro-piperidin-1-yl)-[3-(5-fluoro-pyridin-2-ylamino)-1-(2,2,2-trifluoro-ethyl)-1H-pyrazolo[4,3-c]pyridin-6-yl]-methanone]: the IC50 at human A2B receptors was less than 1000 nM; on human A2A receptors it was less than 100 nM.

For the compound `O=C(c1cc2c(cn1)c(Nc1ccc(F)c(Cl)n1)nn2CC(F)(F)F)N1CCCOCC1` [Compound 65, [3-[(6-chloro-5-fluoro-2-pyridyl)amino]-1-(2,2,2-trifluoroethyl)pyrazolo[4,3-c]pyridin-6-yl]-(1,4-oxazepan-4-yl)methanone], the IC50 on human A2B receptors is less than 1000 nM; on human A2A receptors, less than 100 nM.

For the compound `O=C(c1cc2c(cn1)c(Nc1cc(F)ccn1)nn2CC(F)(F)F)N1CCC[C@H](O)C1` [Compound 117, [(3S)-3-hydroxy-piperidin-1-yl]-[3-(4-fluoro-pyridin-2-ylamino)-1-(2,2,2-trifluoro-ethyl)-1H-pyrazolo[4,3-c]pyridin-6-yl]methanone], the IC50 at human A2B receptors and on human A2A receptors was less than 100 nM each time.

As for `COc1ccc(Nc2nn(CC(F)(F)F)c3cc(C(=O)N4CCCOCC4)ncc23)nc1` [Compound 83, [3-(5-Methoxy-pyridin-2-ylamino)-1-(2,2,2-trifluoro-ethyl)-1H-pyrazolo[4,3-c]pyridin-6-yl]-[1,4]oxazepan-4-yl-methanone], the IC50 at human A2B receptors and at human A2A receptors was less than 100 nM each time.

Consider `O=C(c1cc2c(cn1)c(Nc1cccc(F)c1)nn2CC(F)(F)F)N1CCOCC(O)C1` (stereo not shown) [Compound 32, [3-(3-fluoroanilino)-1-(2,2,2-trifluoroethyl)pyrazolo[4,3-c]pyridin-6-yl]-(6-hydroxy-1,4-oxazepan-4-yl)methanone], for which the IC50 at human A2B receptors was less than 1000 nM; on human A2A receptors, less than 100 nM.
